In patent publication US11541050B2, “Pyrimidine derivatives for the treatment of viral infections” (JANSSEN SCIENCES IRELAND UC, priority 2011, dated 2023):

Tests used:
Assay type in all cases: cell-based
Set-up in all cases: unit not given here
[1] = test system: human TLR8 mutant sequence comprising a deletion in the second leucine-rich repeat; test: TLR8 cellular NFκB-luc reporter assay, mutant TLR8 with deletion in the second leucine-rich repeat; conditions: lowest effective concentration
Method: (§1) The ability of compounds to activate human TLR7 and/or TLR8 was assessed in a cellular reporter assay using HEK293 cells transiently transfected with a TLR7 or TLR8 expression vector and NFκB-luc reporter construct. In one instance the TLR expression construct expresses the respective wild type sequence or a mutant sequence comprising a deletion in the second leucine-rich repeat of the TLR.
(§2) Briefly, HEK293 cells were grown in culture medium (DMEM supplemented with 10% FCS and 2 mM Glutamine). For transfection of cells in 10 cm dishes, cells were detached with Trypsin-EDTA, transfected with a mix of CMV-TLR7 or TLR8 plasmid (750 ng), NFκB-luc plasmid (375 ng) and a transfection reagent and incubated for 48 hours at 37° C. in a humidified 5% CO2 atmosphere. […] Thirty microliters of cells were then dispensed into each well in 384-well plates, where 10 μL of compound in 4% DMSO was already present. Following 6 hours incubation at 37° C., 5% CO2, the luciferase activity was determined by adding 15 μl of Steady Lite Plus substrate (Perkin Elmer) to each well and readout performed on a ViewLux ultraHTS microplate imager (Perkin Elmer). Dose response curves were generated from measurements performed in quadruplicates.

[2] = target: T1, human TLR7 (wild type sequence) (Homo sapiens, UniProt Q9NYK1); test: TLR7 cellular NFκB-luc reporter assay, wild type TLR7; conditions: lowest effective concentration, wild type TLR7
T1 construct: expressed in transfected cells; host or cells: HEK293
T1 sequence (Q9NYK1 27-1049): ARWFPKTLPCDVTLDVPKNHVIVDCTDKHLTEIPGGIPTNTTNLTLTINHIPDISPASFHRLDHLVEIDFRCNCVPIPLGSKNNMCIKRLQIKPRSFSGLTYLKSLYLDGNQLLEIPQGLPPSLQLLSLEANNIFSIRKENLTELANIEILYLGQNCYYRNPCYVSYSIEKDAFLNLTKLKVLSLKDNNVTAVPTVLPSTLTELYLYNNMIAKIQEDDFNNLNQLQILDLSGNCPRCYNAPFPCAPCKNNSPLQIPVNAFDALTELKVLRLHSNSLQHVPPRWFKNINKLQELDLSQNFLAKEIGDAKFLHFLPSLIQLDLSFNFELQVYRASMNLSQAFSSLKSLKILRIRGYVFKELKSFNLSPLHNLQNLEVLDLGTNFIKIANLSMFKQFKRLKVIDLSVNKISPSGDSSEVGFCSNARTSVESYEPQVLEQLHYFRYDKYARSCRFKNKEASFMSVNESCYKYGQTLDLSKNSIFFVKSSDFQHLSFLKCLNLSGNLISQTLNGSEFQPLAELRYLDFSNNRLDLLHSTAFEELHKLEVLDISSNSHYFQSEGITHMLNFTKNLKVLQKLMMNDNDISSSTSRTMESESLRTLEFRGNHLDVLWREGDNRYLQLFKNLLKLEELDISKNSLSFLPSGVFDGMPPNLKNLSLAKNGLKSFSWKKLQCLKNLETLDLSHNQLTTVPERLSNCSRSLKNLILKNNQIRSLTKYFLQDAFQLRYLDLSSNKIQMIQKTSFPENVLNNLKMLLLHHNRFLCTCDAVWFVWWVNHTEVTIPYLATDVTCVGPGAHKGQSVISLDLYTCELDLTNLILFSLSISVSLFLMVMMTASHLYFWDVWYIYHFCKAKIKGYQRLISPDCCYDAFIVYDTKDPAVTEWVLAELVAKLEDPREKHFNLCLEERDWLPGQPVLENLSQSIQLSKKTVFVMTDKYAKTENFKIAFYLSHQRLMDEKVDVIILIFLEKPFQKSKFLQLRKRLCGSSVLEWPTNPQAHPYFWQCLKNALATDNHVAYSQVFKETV
Procedure, shortened: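 First, HEK293 cells were co-transfected with TLR7 or TLR8 (native or LRR2-deletion) and NFκB-luc and cultured 48 h. Next, cells were incubated with compound for 6 h at 37 °C. Finally, luciferase was read; LEC came from dose-response curves run in quadruplicate.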

[3] = test system: human TLR7 mutant sequence comprising a deletion in the second leucine-rich repeat; test: TLR7 cellular NFκB-luc reporter assay, mutant TLR7 with deletion in the second leucine-rich repeat; conditions: lowest effective concentration
Method: as §1, §2

SMILES | TLR8-dIRR2_LEC [1] | TLR7-wt_LEC [2] | TLR7-dIRR2_LEC [3]
CCCC[C@@H](CCO)Nc1nc(N)ncc1OCCCc1ccc(OC)cc1 [Compound 225] | 0.129 | 0.385 | 2.180
CCC[C@@H](CCO)Nc1nc(N)ncc1OCCCc1ccc(OC)cc1 [Compound 226] | 0.036 | 0.274 | 1.050
CCC[C@@H](CCO)Nc1nc(N)ncc1OCc1cccc(C)n1 [Compound 227] | 0.030 | 0.170 | 0.717
CCCC[C@@H](CO)Nc1nc(N)ncc1OCCCc1ccc2c(c1)OCO2 [Compound 228] | 0.112 | 1.410 | 1.510
CCCCNc1nc(N)ncc1OCCN(Cc1ccccc1)C(=O)OCC [Compound 230] | 0.138 | 0.593 | 3.470
CCC[C@@H](CCO)Nc1nc(N)ncc1OCc1nccc2ccccc12 [Compound 231] | <0.001 | 0.001 | 0.052
CCCCNc1nc(N)ncc1OCCNC(=O)OCC [Compound 232] | 0.110 | 0.967 | 1.680
CCCCNc1nc(N)ncc1OCCOC(C)C [Compound 234] | 0.464 | 1.850 | 1.170
CCCCNc1nc(N)ncc1OCC1CCOC1 (stereo not drawn) [Compound 235] | 1.890 | >25 | 10.410
CCCCNc1nc(N)ncc1OCc1ccc2cccnc2n1 [Compound 236] | 0.031 | 0.241 | 0.333
CCCC[C@@H](CCO)Nc1nc(N)ncc1OCc1cc(C)n(C)n1 [Compound 237] | 0.051 | 0.156 | 1.830
CCC[C@@H](CCO)Nc1nc(N)ncc1OCCCc1ccc2c(c1)OCO2 [Compound 238] | 0.091 | 0.234 | 1.920
CCC[C@@H](CO)Nc1nc(N)ncc1OCc1ccccn1 [Compound 239] | 0.145 | 0.464 | 0.247
CCCC[C@@H](CCO)Nc1nc(N)ncc1OCc1nn(C)c2ccccc12 [Compound 240] | 0.005 | 0.008 | 0.442
CCCC[C@@H](CCO)Nc1nc(N)ncc1OCc1ncccc1OC [Compound 241] | 0.004 | 0.008 | 0.304
CCCC[C@@H](CCO)Nc1nc(N)ncc1OCc1ncc(C)c(O)c1C [Compound 242] | 0.006 | 5.400 | 3.010
CCCC[C@@H](CO)Nc1nc(N)ncc1OCc1ccccn1 [Compound 243] | 0.190 | 0.343 | 0.103
CCCC[C@@H](CCO)Nc1nc(N)ncc1OCCCc1ccc2c(c1)OCO2 [Compound 244] | 0.104 | 0.202 | 1.400
CCCC[C@@H](CCO)Nc1nc(N)ncc1OCc1nccc(OC)c1OC [Compound 245] | 0.011 | 0.040 | 0.507
CCC[C@@H](CCO)Nc1nc(N)ncc1OCc1cc(C)n(C)n1 [Compound 246] | 0.048 | 0.157 | 1.150
CCCC[C@@H](CCO)Nc1nc(N)ncc1OCc1cncn1[C@@H](C)c1ccccc1 [Compound 247] | 3.200 | 12.390 | 8.240

SMILES | TLR8-dIRR2_LEC [1] | TLR7-wt_LEC [2] | TLR7-dIRR2_LEC [3]
C#CCOc1cnc(N)nc1NCCCC [Compound 248] | 0.529 | 2.120 | 0.654
CCC[C@@H](CCO)Nc1nc(N)ncc1OCc1cc2ccccc2cn1 [Compound 249] | 0.036 | 0.039 | 0.172
CCCC[C@@H](CCOC(=O)C(C)C)Nc1nc(N)ncc1OC [Compound 250] | 0.580 | 0.724 | 3.250
CCC[C@H](C)Nc1nc(N)ncc1OCc1cn2ccccc2n1 [Compound 251] | 0.087 | 0.164 | 0.556
CCC[C@@H](C)Nc1nc(N)ncc1OCc1nccc(OC)c1OC [Compound 252] | 1.310 | 4.020 | >25
CCC[C@@H](C)Nc1nc(N)ncc1OCc1cn2ccccc2n1 [Compound 253] | 6.230 | 12.760 | >25
CCC[C@@H](CO)Nc1nc(N)ncc1OCc1cc(C)nn1C [Compound 254] | 0.364 | 1.770 | 0.467
CCCC[C@@H](CO)Nc1nc(N)ncc1OCc1cc(C)n(C)n1 [Compound 255] | 0.315 | 0.552 | 0.515
CCC[C@@H](CO)Nc1nc(N)ncc1OCc1cccc(C(N)=O)n1 [Compound 256] | 0.039 | 1.630 | 0.100
CCC[C@@H](CO)Nc1nc(N)ncc1OCc1cc(C)n(C)n1 [Compound 257] | 0.304 | 0.697 | 0.444
CCC[C@@H](CO)Nc1nc(N)ncc1OCc1cc2ccccc2cn1 [Compound 258] | 0.060 | 0.074 | 0.153
CCCC[C@@H](CO)Nc1nc(N)ncc1OCc1cccc(C(=O)O)n1 [Compound 259] | 1.250 | 6.980 | 3.150
CCC[C@@H](CO)Nc1nc(N)ncc1OCc1cccc(C(=O)O)n1 [Compound 260] | >8.14 | 4.850 | 2.830
CCCCNc1nc(N)ncc1O[C@@H](C)c1ccccn1 [Compound 262] | 0.363 | 0.658 | 0.168
CCC[C@H](C)Nc1nc(N)ncc1OCc1nccc(OC)c1OC [Compound 263] | 0.056 | 0.049 | 0.159
CCC[C@@H](CCO)Nc1nc(N)ncc1OCc1cc(C)nn1C [Compound 264] | 0.087 | 0.215 | 0.489
CCCC(C)Nc1nc(N)ncc1OCCCc1ccc2c(c1)OCO2 (stereo not drawn) [Compound 265] | 0.591 | 0.752 | 3.700
CCCC[C@@H](CCO)Nc1nc(N)ncc1OCCOC [Compound 266] | 0.557 | 1.070 | 1.890
CCCC(C)Nc1nc(N)ncc1OCCOC (stereo not drawn) [Compound 267] | 1.710 | 4.880 | 0.719
CCC[C@@H](CCO)Nc1nc(N)ncc1OCCOC [Compound 268] | 1.170 | 2.100 | 1.800
